# Source: US20250243160A1, “INDOLE DERIVATIVES FOR TARGETING AUTOPHAGY” (Automera PTE. LTD, priority 2024, published 2025)
# Experiments:
# p62 oligomers = molecular target: T1, p62 oligomers (Homo sapiens, UniProt Q13501); assay: p62 oligomerization assay by Western blot in HeLa cells; format: cell-based; details: 24 hours treatment, relative to vehicle control (DMSO)
# T1 construct: endogenous in cells; host or cells: HeLa
# Method: HeLa cells were seeded in 6-well plates (700,000 cells) and allowed to adhere overnight. Media was replaced one hour before administering either vehicle (DMSO) or test compounds. After 24 hours of treatment, the media was discarded, and cells were rinsed once with ice-cold 1×PBS before detached from plates with ice-cold RIPA Lysis and Extraction Buffer (Thermo Fisher Scientific) which was supplemented with protease and phosphatase inhibitors. The resulting cell suspensions were transferred to pre-chilled microcentrifuge tubes, incubated on ice for 20 min with intermittent mixing and then centrifuged at 12,000 rpm for 20 min at 4° C. The supernatants were then aspirated slowly and transferred into new tubes kept on ice. The protein concentration in the samples was determined using BCA kit (Thermo Fisher Scientific) as per manufacturer's instructions.
# For the p62 oligomerization and LC3 lipidation assays, cell lysates were prepared using RIPA buffer supplemented with 2% SDS and benzonase (Sigma). The lysates were then combined with 4× Laemmli protein sample buffer (Bio-Rad), heated at 70° C. for 10 min and subjected to a brief centrifugation of 10-15 seconds.
# For p62 oligomerization and LC3 lipidation assays, lysates containing 30 μg of protein and for BRD4 and FKBP12(F36V) degradation assays, lysates containing 20 μg of protein, were loaded slowly into the wells of 4-20% gradient Tris-glycine gels (Bio-Rad). The gels were run at 100V until completion and transferred onto PVDF membranes. Membranes were blocked using 5% milk in TBS-Tween (0.1%) buffer at room temperature for 1 hour. The membranes were incubated with primary antibody in 5% milk-TBST with shaking, overnight at 4° C. The primary antibodies used were: p62 (Novus Biologicals 2C11, H00008878-MO1), LC3A/B (Cell Signalling Technology D3U4C, 12741S), FKBP12 (Abcam ab24373), BRD4 (Cell Signalling Technology E2A7X, 13440S), GAPDH (Cell Signalling Technology D4C6R, 97166S), and β-Actin (Proteintech 66009-1-Ig). Following primary antibody incubation, membranes were washed thrice with TBST 10 min before and after incubation with secondary-HRP conjugated antibody in 5% milk-TBST for 1 hour at room temperature. The secondary antibodies used were: Anti-Mouse IgG HRP Conjugate (Promega W4021B) and Anti-Rabbit IgG HRP Conjugate (Promega W4011). For the p62 oligomerization assay, the total protein levels were assessed using Ponceau staining (Thermo Fisher Scientific) of PVDF membrane as per recommendation by manufacturer's guidelines.
# Imaging was acquired using SuperSignal™ West Pico PLUS Chemiluminescent Substrate (Thermo Fisher Scientific) with iBright Invitrogen FL100 imaging system. Band signal intensity, reflective of protein concentrations, were quantified using Invitrogen™ iBright™ Analysis and Image J software.
# HeLa cells were treated with compounds for 24 hours to evaluate the effect of these compounds on p62 oligomerisation activity. The resulting changes in levels of p62 oligomers were assessed by Western blotting, as described in experimental procedures. The fold change of p62 oligomer levels induced by compound treatment relative to vehicle control (DMSO) was determined and summarized in Table 8. Specifically, FIGS. 2A-C show Western blot images and their corresponding quantification showing the levels of high molecular weight (100-200 kDa) p62 oligomers by 24 hours compound treatments at listed concentrations, relative to vehicle control (DMSO) in HeLa cells. Protein loading consistencies was assessed by Ponceau staining (not shown).
# Recombinant p62 protein = Recombinant p62 protein (Homo sapiens, UniProt Q13501); assay: Surface plasmon resonance (SPR) compound binding to p62; details: 15° C
# Sequence of Recombinant p62 protein (Q13501 whole entry, species assumed): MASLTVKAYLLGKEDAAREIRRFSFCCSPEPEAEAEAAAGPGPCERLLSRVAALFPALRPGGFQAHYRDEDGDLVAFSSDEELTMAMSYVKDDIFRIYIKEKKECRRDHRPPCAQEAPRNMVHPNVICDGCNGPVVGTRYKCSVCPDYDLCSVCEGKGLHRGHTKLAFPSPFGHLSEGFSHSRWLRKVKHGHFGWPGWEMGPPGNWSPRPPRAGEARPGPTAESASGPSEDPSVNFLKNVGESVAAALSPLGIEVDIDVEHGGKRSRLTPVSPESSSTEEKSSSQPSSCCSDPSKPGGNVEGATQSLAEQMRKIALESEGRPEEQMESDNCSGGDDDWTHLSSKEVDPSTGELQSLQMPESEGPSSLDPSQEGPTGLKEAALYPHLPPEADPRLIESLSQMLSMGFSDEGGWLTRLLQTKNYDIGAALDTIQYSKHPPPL
# T1 sequence (Q13501 whole entry): as the sequence (Q13501 whole entry, species assumed) above
receptor occupancy at 100 µM (Recombinant p62 protein) [%],Compound,p62 oligomerization (fold change of p62 oligomer levels) (p62 oligomers)
30 to 70,"OCCNCc1cccc2c1ccn2Cc1ccccc1 [Compound 1, 2-(((1-benzyl-1H-indol-4-yl)methyl)amino)ethan-1-ol]",++ (>2-fold change relative to DMSO control)
> 70,OCCNCc1cc(F)cc2c1ccn2Cc1ccc(F)cc1 [Compound 44],++ (>2-fold change relative to DMSO control)
30 to 70,"OCCNCc1cc(F)cc2c1ccn2Cc1ccc(Cl)cc1 [Compound 45, 2-(((1-(4-chlorobenzyl)-6-fluoro-1H-indol-4-yl)methyl)amino)ethan-1-ol]",++ (>2-fold change relative to DMSO control)
